Results published in patent US12324812B2, “Glucopyranosyl derivatives and their uses” (SUNSHINE LAKE PHARMA CO., LTD., priority 2019, dated 2025).
pIC50: −log10 of the molar value.

Experiments:
[1] = biological target: human SGLT1 (Homo sapiens (Human), UniProt P13866); experiment: Test of inhibitory activity on SGLT1 (14C-AMG uptake in CHO cells expressing human SGLT1); format: cell-based; settings: CHO cells expressing human SGLT1, 0.5 μM 14C-AMG, 37° C. 1 hour
Method: 1. Test of Inhibitory Activity on SGLT1
the following methods can be used to determine the inhibitory activity of the compounds described in the invention on SGLT-1.
mock-transfected FIP-in CHO cells (3×10^4) and CHO cells expressing human SGLT1 gene were seeded into 96-well plates respectively. The cells were incubated for 12 hours. Each well of the 96-well plate was washed with 150 μL of sodium-free buffer once. To each well was added 50 μL of sodium-containing buffer containing test compounds of different concentrations and 0.5 μM […]. The incubation mixture was incubated at 37° C. for 1 hour. To each well was added 150 μL of precooled sodium-free buffer to terminate the reaction. The cell pellet was washed with sodium-free buffer three times and the residual liquid in well was removed. To each well was added 20 μL of precooled 100 mM NaOH. The 96-well plate was vibrated at 900 rpm for 5 minutes. Scintillation fluid (80 μL) was added to each well which was then vibrated at 600 rpm for 5 minutes. The amount of 14C-AMG was quantitatively detected using liquid scintillation.

[2] = tested on: SD rats; experiment: Oral glucose tolerance test in SD rats; format: in vivo, rat; settings: male SD rats, 0.1 mg/kg once by gavage, glucose 4.0 g/kg; decline rate of AUCGlu 0-60 min after sugar loading
Method: 2. Oral Glucose Tolerance Test and UrinaR^y Glucose Excretion Test
The following methods were used to evaluate the effects of the compounds of the invention on improving oral glucose tolerance and glycosuria excretion.
Test method: The weight and the fasting blood glucose levels of male SD rats were measured after an overnight 15-hour fast. The rats were grouped by their weights and fasting plasma glucose levels. Each test group was administered with the corresponding test compound once by gavage at a dose of 0.1 mg/Kg, and the blank control group was administered solvent. After 30 minutes, the blood glucose level (i.e. zeropoint blood glucose) of each group was measured, and then each group was immediately administered glucose (4.0 g/kg) once by gavage. The blood was drawn from the tail vein at 15, 30 and 60 minutes after glucose administration and the blood glucose concentrations of SD rats were measured continuously on blood-glucose meter. The decline rate of the area under the blood sugar curve within 60 minutes (AUCGlu 0-60 min) after sugar loading was calculated.
After blood glucose level at 60 min time point was measured, each group was placed in a metabolism cage, and the urine was collected during 1.5 hours to 24 hours and 24 hours to 48 hours after drug administration with the metabolism cage as the unit. The urine volume of each metabolism cage at each point was recorded. The urine was collected and centrifuged to obtain the supernatant. The […] had free access to food and water during the urine collection. The urine glucose concentration of SD rats at each time point was determined on automatic biochemical analyzer.

human SGLT1, sequence (P13866 whole entry): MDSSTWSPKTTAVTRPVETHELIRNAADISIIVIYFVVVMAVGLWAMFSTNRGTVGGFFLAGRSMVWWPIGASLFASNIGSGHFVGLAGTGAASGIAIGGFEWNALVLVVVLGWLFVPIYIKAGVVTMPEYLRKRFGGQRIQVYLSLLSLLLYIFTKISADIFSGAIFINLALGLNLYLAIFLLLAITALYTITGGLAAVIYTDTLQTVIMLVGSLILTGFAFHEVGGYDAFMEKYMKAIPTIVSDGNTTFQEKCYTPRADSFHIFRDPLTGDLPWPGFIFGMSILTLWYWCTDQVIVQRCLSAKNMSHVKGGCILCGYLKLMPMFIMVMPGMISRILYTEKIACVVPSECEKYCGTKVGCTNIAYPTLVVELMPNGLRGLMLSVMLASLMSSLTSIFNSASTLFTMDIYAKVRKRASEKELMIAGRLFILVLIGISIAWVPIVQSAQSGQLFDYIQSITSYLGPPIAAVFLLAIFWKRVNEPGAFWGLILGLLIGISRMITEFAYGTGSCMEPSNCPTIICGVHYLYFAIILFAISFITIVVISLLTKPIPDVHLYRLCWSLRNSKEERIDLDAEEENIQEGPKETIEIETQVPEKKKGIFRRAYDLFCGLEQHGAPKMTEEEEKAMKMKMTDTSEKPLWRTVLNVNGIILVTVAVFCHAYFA

| SMILES | pIC50 [1] | hypoglycemic rate [2] |
| --- | --- | --- |
| CC[C@H]1O[C@@H](c2ccc(C)c(Cc3ccc(CCCC(=O)NC4(C(=O)NCCN(C)C)CCCCC4)cc3)c2)[C@H](O)[C@@H](O)[C@@H]1O [Example 1, N-(2-dimethylaminoethyl)-1-[4-[4-[[5-[(2S, 3R, 4S, 5S, 6R)-6-ethyl-3,4,5-trihydroxy-tetrahydropyran-2-yl]-2-methyl-phenyl]methyl]phenyl]butyrylamino] cyclohexyl formamide] | 9.66 | 31.28% |
| CCC[C@H]1O[C@@H](c2ccc(C)c(Cc3ccc(CCCC(=O)NC4(C(=O)NCCN(C)C)CCCCC4)cc3)c2)[C@H](O)[C@@H](O)[C@@H]1O [Example 3, N-(2-dimethylaminoethyl)-1-[4-[4-[[2-methyl-5-[(2S, 3R, 4S, 5S, 6R)-3,4,5-trihydroxy-6-propyl-tetrahydropyran-2-yl]phenyl]methyl]phenyl]butyrylamino] cyclohexylformamide] | 9.60 | 29.42% |
| Cc1ccc([C@]23OC[C@](CO)(O2)[C@@H](O)[C@H](O)[C@H]3O)cc1Cc1ccc(CCCC(=O)NC2(C(=O)NCCN(C)C)CCCCC2)cc1 [Example 4, N-(2-dimethylaminoethyl)-1-[4-[4-[[2-methyl-5-[(1S, 2S, 3S, 4R, 5S)-2,3,4,-trihydroxy-1-(hydroxymethyl)-6,8-dioxabicyclo [3.2.1]octane-5-yl]phenyl]methyl]phenyl]butyrylamino] cyclohexyl formamide] | 8.93 | 26.25% |
